What all share (assay): NCI anticancer screen, dose series, 48 h
The subject of assay [1] is OVCAR-8 ovarian.
The subject of assay [2] is EKVX NSCLC.
For assay [3], the system named is A498 renal.
Assay [4] deals with PC-3 prostate.
Assay [5] has as its system NCI-H522 lung.
The test system of assay [6] is HS 578T breast.
For assay [7], the system named is OVCAR-3 ovarian.
Assay [8] has as its system K-562 leukemia.
For assay [9], the system named is HT29 colon.
For assay [10], the system named is MALME-3M melanoma.
Assay [11] deals with SK-OV-3 ovarian.
The test system of assay [12] is NCI/ADR-RES ovarian.

Values joined by “and” are separate entries in the source; they are usually repeats but may differ in a detail not shown here. Equal values may be shown once.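 All cell lines were grown in 96-well plates and treated with compound for 48 hours. Here, GI50 denotes the concentration required for 50% inhibition of growth. TGI marks complete inhibition of growth.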 Where a SMILES comes first, the peptide text is derived from it. [ ]: non-standard residue; d: D form. The star is where a group is joined. ξ: configuration not given here. ξPhe(4-NO2) = NC(Cc1ccc([N+](=O)[O-])cc1)C(=O)O; Boc = CC(C)(C)OC(=O)*

`COc1cc(C2SCC(=O)N2NC(=O)c2ccc(NC(C)=O)cc2OC)ccc1O` (stereo not given): the TGI in [1] is 62.9 µM; in assay [2], > 100 µM; in [3], > 100 µM; in [4], > 100 µM; in [5], > 100 µM; in [6], > 100 µM. The TGI was > 100 µM in [7]; > 100 µM in [8]; > 100 µM in assay [9]; > 100 µM in [10]; 26.7 µM in assay [11]; > 100 µM in assay [12].
Consider `Clc1nc(Nc2nc3ccccc3[nH]2)nc(Cl)c1-c1ccccc1`, for which the TGI came out at 69.4 µM in [1]; 71.4 µM in assay [2]; 60.6 µM in [3]; 60.1 µM in assay [4]; 42.5 µM in assay [5]; 56.4 µM in assay [6]. For the same compound, the TGI is > 100 µM in assay [8]; 34.9 µM in assay [9]; 38.6 µM in [10]; 50.5 µM in assay [11]; 92.7 µM in assay [12].
As to `C=C(C)C1CC2=C(O1)C(=O)c1cccc(O)c1C2=O` (stereo not given), the TGI in [1] amounted to 1.81 µM; in [2], 2.52 µM; in assay [3], 10.2 µM; in [4], 3.67 µM; in [5], 1.73 µM; in [6], 5.34 µM. For the same compound, the TGI in [7] amounted to 0.924 µM; in assay [8] it was 0.689 µM; in assay [9], 3.13 µM; in assay [10], 2.31 µM; in assay [11], 2.86 µM; in assay [12], 2.78 µM.
In the case of `CN(/N=C/c1ccccc1C(=O)O)C1=NCCCCN1`, the TGI is > 100 µM in assay [1]; > 100 µM in assay [2]; > 100 µM in assay [3]; > 100 µM in assay [4]; 36.7 µM in assay [5]; > 100 µM in assay [6]. Besides, the TGI in [7], in assay [8], in assay [9], in [10], in assay [11] and in assay [12] was > 100 µM each time.
As to `COc1cc(C(=O)N(C(=S)OC23CC4CC(CC(C4)C2)C3)c2ccccc2)cc(OC)c1OC`, the TGI is > 100 µM in [1]; 48.1 µM in assay [2]; 92.5 µM in [3]; > 100 µM in assay [4]; 25.9 µM in [5]; > 100 µM in [6]. Further, the TGI in assay [7] was > 100 µM; in assay [8] it was > 100 µM; in assay [9], 41.8 µM; in [10] it was 82.1 µM; in assay [11], > 100 µM; in assay [12] it was > 100 µM.
On to `COc1ccc(Br)c(C=Nc2cccc3cc(OC)c(OC)cc23)c1`, for which the TGI is > 59.9 µM in [1]; > 100 µM in [2]; > 100 µM in assay [3]; > 100 µM in assay [4]; > 100 µM in assay [5]; 57.1 µM in assay [6]. The TGI was > 100 µM in assay [7]; > 39.6 µM in [8]; > 71.8 µM in [9]; 99.6 µM in assay [10]; > 100 µM in assay [11]; > 77.8 µM in assay [12].
As for `Nc1ncnc2c1cnn2COCC(O)CO` (stereo not given), the TGI in assay [1], in assay [2], in assay [3], in assay [4], in assay [5] and in assay [6] was > 100 µM throughout. For the same compound, the TGI in assay [7], in assay [8], in assay [9], in assay [10], in assay [11] and in [12] was > 100 µM throughout.
As for `CCNC(=O)CNC(=O)C(Cc1ccc([N+](=O)[O-])cc1)NC(=O)OC(C)(C)C` (stereo not given) (Boc-[ξPhe(4-NO2)]-Gly-NHEt), the TGI in assay [1], in [2], in assay [3], in assay [4], in [5] and in assay [6] was > 100 µM in each case. Further, the TGI in assay [7], in assay [8], in assay [9], in [10], in [11] and in assay [12] was > 100 µM in each case.
`OC1(C2(c3ccc(Cl)cc3)CCCC2)c2ccccc2C2=NCCN21` (stereo not given): the TGI is 32 µM in [1]; 31.6 µM in assay [2]; 29.4 µM in assay [3]; 25.1 µM in assay [4]; 32.3 µM in [5]; > 100 µM in assay [6]. For the same compound, the TGI in [7] was determined as 30.9 µM; in assay [8] it was 20.4 µM; in [9], 23.5 µM; in assay [10] it was 34.7 µM; in [11], 33.9 µM; in assay [12], 33.2 µM.
On to `CC(C)C[C@H](NC(=O)CCc1cccc2ccccc12)B(O)O`, for which the TGI turned out to be 19.6 µM in [1]; 64.2 µM in assay [2]; 6.12 µM in [3]; 29.3 µM in assay [4]; 4.95 µM in assay [5]; 7.4 µM in assay [6]. Besides, the TGI in assay [7] was 1.86 µM; in [8], 21.4 µM; in assay [9] it was 6.27 µM; in assay [10], 5.23 µM; in assay [11], > 86.4 µM; in assay [12] it was 11.7 µM.
Take `CC1(C)CC[C@]2(C(=O)O)CC[C@]3(C)C(=CC[C@@H]4[C@@]5(C)CC[C@H](OC6OC(CO)C(O)C(O)C6O)C(C)(C)[C@@H]5CC[C@]43C)[C@@H]2C1` (stereo not given in full): the TGI in assay [1] worked out at 3.12 µM; in assay [3], 3.82 µM; in assay [4], 2.96 µM; in assay [5], 2.91 µM; in assay [6], 4.74 µM; in [7], 3.01 µM. Further, the TGI amounted to 3.67 µM in assay [8]; 2.98 µM in assay [9]; 3.16 µM in assay [10]; 3.16 µM in assay [11]; 22.9 µM in [12].
Regarding `C=CC(C)(C)n1cc(C2=C(O)C(=O)C(c3c(CC=C(C)C)[nH]c4ccccc34)=C(O)C2=O)c2ccccc21`, the TGI in [1] is 4.57 µM; in assay [2], 6.01 µM; in [3] it was 2.99 µM; in [4] it was 4.78 µM; in [5] it was 6.18 µM; in [6], 25 µM. Besides, the TGI in assay [7] is 3.05 µM; in [8] it was 5.02 µM; in assay [9], 7.36 µM; in [10], 3.9 µM; in [11] it was 5.41 µM; in assay [12], 9.09 µM.
Take `COc1ccc(C(=O)N(Cc2cccnc2)C(=S)N(Cc2cccnc2)C(=O)c2ccc(OC)cc2)cc1`: the TGI in [1], in assay [2], in assay [3], in assay [4], in assay [5] and in [6] was > 100 µM in each case. Besides, the TGI in [7], in assay [8], in assay [9], in assay [10], in [11] and in assay [12] was > 100 µM throughout.
For the compound `CCOC(=O)C(=O)C(/C(=N/N(C)C)C(=O)Nc1ccc(C)cc1C)c1nc2ccccc2[nH]c1=O` (stereo not given), the TGI in [1], in assay [2], in [3], in assay [4], in assay [5] and in assay [6] was > 100 µM in each case. Moreover, the TGI in [7], in assay [8], in assay [9], in assay [10], in assay [11] and in assay [12] was > 100 µM each time.
With `Brc1ccc(C2CC3(c4ccccc4)ON=C(c4ccccc4)N3c3ccccc3S2)cc1` (stereo not given), the TGI in [1], in [2], in [3], in assay [4], in assay [5] and in [6] was > 100 µM throughout. Moreover, the TGI in assay [7], in assay [8], in assay [9], in assay [10], in [11] and in assay [12] was > 100 µM each time.
Regarding `C=COC(=O)N1C2CCCC(Cl)(C(C)=O)C1CC2` (stereo not given), the TGI in [1], in [2], in assay [3], in assay [4], in assay [5] and in [6] was > 100 µM in each case. Besides, the TGI in assay [7], in assay [8], in assay [9], in assay [10], in assay [11] and in [12] was > 100 µM throughout.
Regarding `COC(=O)C1SC[C@H]2C(=O)N(c3ccccc3)C(=O)N12` (stereo not given in full), the TGI in [1], in assay [2], in assay [3], in assay [4], in assay [5] and in [6] was > 100 µM throughout. The TGI in assay [7], in assay [8], in assay [9], in assay [10], in assay [11] and in assay [12] was > 100 µM each time.
`CCCCN1CCC(O)(c2cc(C(=O)O)[nH]c2-c2cc(C)no2)C1=O` (stereo not given): the TGI in assay [1], in assay [2], in assay [3], in assay [4], in [5] and in [6] was > 100 µM throughout. Moreover, the TGI in assay [7], in [8], in [9], in assay [10], in [11] and in [12] was > 100 µM each time.
Turning to `COc1ccc(NC(=S)Nc2c(C)n(C)n(-c3ccccc3)c2=O)cc1`, the TGI in assay [1], in assay [2], in [3], in assay [4], in [5] and in [6] was > 100 µM in each case. Also, the TGI in assay [7], in [8], in assay [9], in assay [10], in [11] and in assay [12] was > 100 µM throughout.
On to `NS(=O)(=O)c1ccc(N2C(=O)C(=O)N(c3ccccc3)C2=S)cc1`, for which the TGI in assay [1], in [2], in assay [3], in assay [4], in assay [5] and in assay [6] was > 100 µM throughout. The TGI in assay [8], in assay [9], in [10], in assay [11] and in assay [12] was > 100 µM throughout.
With `COC1C(OC(C)=O)CC(=O)OC(C)C/C=C/C=C\C(O)C(C)CC(CC=O)C1OC1OC(C)C(OC2CC(C)(O)C(OC(=O)CC(C)C)C(C)O2)C(N(C)C)C1O` (stereo not given), the TGI in assay [1], in [3], in assay [4], in assay [5], in assay [6] and in assay [7] was > 100 µM each time. For the same compound, the TGI in assay [8], in assay [9], in [10], in assay [11] and in [12] was > 100 µM each time. For the same compound, in [6], the GI50 was > 100 µM and 42 µM.
On to `COc1ccc(S(=O)(=O)Nc2ccc(-c3csc(N4C(=O)/C(=C/c5cccs5)N=C4c4ccccc4)n3)cc2)cc1Cl`, for which the TGI was > 100 µM in assay [1]; 65.2 µM in [3]; > 100 µM in assay [4]; 62.8 µM in assay [5]; 93.3 µM in assay [6]; > 100 µM in [7]. Further, the TGI was > 100 µM in assay [8]; > 100 µM in assay [9]; 90.5 µM in assay [10]; > 100 µM in [11]; > 100 µM in [12].

The record behind these values is PubChem BioAssay (NCI).
